# PMC10086185, “Synthesis, radiolabeling, and evaluation of a (4-quinolinoyl)glycyl-2-cyanopyrrolidine analogue for fibroblast activation protein (FAP) PET imaging” (Frontiers in Bioengineering and Biotechnology, 2023)
# Read-outs that look alike come from different tables or passages of the source.
# How the values were obtained:
# [1] = test system: FAP; conditions: cited from earlier work; for EC50: ref Lindner et al., 2018
# [2] = test system: A549-FAPI xenograft tumors; assay: Micro-PET/CT imaging, A549-FAPI xenograft tumors; assay type: in vivo, BALB/c nude mice; conditions: A549-FAPI tumors; pre-injection of compound 3, 2 mg/kg
# Description: BALB/c nude mice used in this study were obtained from the Animal Center of Sichuan University. Tumor-bearing mouse models were established by the subcutaneous injection of 100 µL of PBS suspension containing approximately 1*10^6 tumor cells to the body side of the subjects. The tumor volume was monitored every day, and the tumor-bearing mice were ready for imaging once the tumor volume reached 0.5 mm^3 (tumor volume can be calculated by this equation: Volume = 0.5 * long tail * short tail *short tail). Micro-PET/CT imaging studies were performed on the IRIS Micro-PET/CT system (Inviscan SAS, France). Tumor-bearing mice were injected with approximately 11.2–14.8 MBq of [^18F]3 (200 µL) via the tail vein under anaesthetization by isoflurane. Static PET images were obtained at designated time points and were reconstructed with a 3D-OSEM algorithm using a Monte Carlo-based accurate detector model. Then, 170 sec-CT acquisition was conducted with 50 kV, 1 mA X-ray output for attenuation correction and anatomical orientation. ROIs (regions of interest) were drawn on the lung, kidney, liver, and tumor by OsiriX software. SUV (standardized uptake value) of the ROIs was directly obtained from OsiriX for each subject according to this formula: SUV = Voxal value (Bq/mL) * Body weight (kg)/(Decay corrected Dose (Bq) * 1,000 (g/kg)).
# BALB/c nude mice used in this study were obtained from the Animal Center of Sichuan university. Tumor-bearing mice model were established by the subcutaneous injection of 100 µL of PBS suspension containing approximately 1*10^6 tumor cells to the body side of the subjects. The tumor volume was monitored every day and the tumor-bearing mice were ready for imaging once the tumor volume reach 0.5 mm^3 (tumor volume can be calculated by this equation: Volume = 0.5 * long tail * short tail *short tail). Micro-PET/CT imaging studies were performed on the IRIS Micro-PET/CT system (Inviscan SAS, France). Tumor-bearing mice were injected with approximately 11.2-14.8 MBq of [^18F]3 (200 µL) via tail vein under anaesthetization by isoflurane. Static PET images were obtained at designated time points and were reconstructed with a 3D-OSEM algorithm using a Monte-Carlo based accurate detector model. A 170 sec-CT acquisition was conducted with 50 kV, 1 mA X-ray output for attenuation correction and anatomical orientation. ROIs (regions of interest) were drawn on lung, kidney, liver and tumor by Osirix software. SUV (standardized uptake value) of the ROIs was directly obtained from Osirix for each subject according to this formula: SUV = Voxal value (Bq/mL) * Body weight (kg)/(Decay corrected Dose (Bq) * 1000 (g/kg)).
# [3] = test system: U87MG cells; assay: Cellular uptake of [^18F]3 in U87MG cells; assay type: cell-based; conditions: U87 cells; compound 3 10 µM
# Description: (§1) Briefly, all cells were divided into the following two groups: A: blocking group and B: vehicle group. All cells were cultured, grouped, and plated (approximately 2*10^6 cells per well) before use. Cells were treated with [^18F]3 (74 KBq) and incubated at 37°C under a 5% CO2 atmosphere. […] Incubated at 37°C for 1 h, the medium from each well was removed, and the cells were washed twice with 1 mL of PBS. The medium and the PBS from each well were combined and counted in a Gamma counter (PerkinElmer Wizard 2470) for radioactivity counts. The cells were then handled with 1 mL of 1 M NaOH, and the lysates were also counted in the Wizard 2470 gamma counter. The uptake ratios for each group were then calculated with this equation: %Dose = […](medium counts + PBS counts + cell lysate counts).
# [4] = test system: A549-FAPI cells (human FAP-expressing A549); assay: Cellular uptake of [^18F]3 in A549-FAPI cells; assay type: cell-based; conditions: compound 3 10 µM
# Description: as §1
# [5] = ref Jansen et al., 2013, Jansen et al., 2014, read-out: FAP IC50
# [6] = FAP, ref Wang et al., 2022, read-out: IC50
smiles,measurement,setting,value
N#C[C@@H]1CC(F)(F)CN1C(=O)CNC(=O)c1ccnc2ccc(F)cc12 [compound 3],Inhibition of tumor SUV,[2],over 50%
same,Uptake in blocking group as % of vehicle group,[3],79.38%
same,Inhibitory activity against FAP,[1]; ref previous SAR studies,nanomolar activity
same,Uptake in blocking group as % of vehicle group,[4],52.34%
N#C[C@@H]1CCCN1C(=O)CNC(=O)c1ccnc2ccc(OCCCN3CCN(C(=O)CN4CCN(CC(=O)O)CCN(CC(=O)O)CCN(CC(=O)O)CC4)CC3)cc12 [FAPI-02],EC50,[1],21 nM
N#C[C@@H]1CCCN1C(=O)CNC(=O)c1ccnc2ccc(F)cc12 [compound 2],IC50,[1]; [5],10.3 nM
[11CH3]Oc1ccc2nccc(C(=O)NCC(=O)N3CCC[C@H]3C#N)c2c1 [[^11C]RJ001],IC50,[1]; [6],9.2 nM
[11CH3]Oc1ccc2nccc(C(=O)NCC(=O)N3CC(F)(F)C[C@H]3C#N)c2c1 [[^11C]RJ002],IC50,[1]; [6],8.5 nM
N#C[C@@H]1CC(F)(F)CN1C(=O)CNC(=O)c1ccnc2ccc(OCCCN3CCN(C(=O)CN4CCN(CC(=O)O)CCN(CC(=O)O)CCN(CC(=O)O)CC4)CC3)cc12 [FAPI-04],EC50,[1],6.5 nM
